Data published in patent US9512113B2, “N-(tetrazol-5-yl)- and N-(triazol-5-yl)arylcarboxylic thioamides and use thereof as herbicides” (BAYER CROPSCIENCE AG, priority 2012, dated 2016).

Columns and labels:
Assay type in all cases: in vivo
[1] = test system: Brassica napus (oilseed rape); test: Pre-emergence action, damage to crop plants
Source text: (§1) Seeds of monocotyledonous and dicotyledonous weed plants and crop plants are placed in wood-fiber pots in sandy loam and covered with soil. The compounds according to the invention, formulated in the form of wettable powders (WP) or as emulsion concentrates (EC), are then applied as aqueous suspension or emulsion at a water application rate of 600 to 800 I/ha (converted) with the addition of 0.2% of wetting agent to the surface of the covering soil. After the treatment, the pots are placed in a greenhouse and kept under good growth conditions for the test plants. The damage to the test plants is assessed visually after a test period of 3 weeks by comparison with untreated controls (herbicidal activity in percent (%): 100% action=the plants have died, 0% action=like control plants). Here, for example, the compounds Nos 1-8, 1-26 and 4-7, at an application rate of 80 g/ha, show an activity of at least 80% against Alopecurus myosuroides, Avena fatua, Cyperus serotinus, Echinochloa crus galli, Lolium multiflorum, Setaria viridis, Abutilon theophrasti, Amaranthus retroflexus, Matricaria inodora, Pharbitis purpureum, Stellaria media, Viola tricolor and Veronica persica.
(§2) These comparative experiments were carried out under the conditions mentioned above by the pre-emergence method and the post-emergence method. In the tables below, the top line in each case states the compound according to the invention, and the bottom line states the compound from WO 2012/028579 A1.

[2] = test system: Abutilon theophrasti; test: Pre-emergence herbicidal action against harmful plants
Source text: as §1, §2

[3] = test system: Pharbitis purpureum; test: as above
Source text: as §1, §2

[4] = test system: Amaranthus retroflexus; test: Post-emergence herbicidal action against harmful plants; conditions: Table H, 5 g/ha
Description: (§3) Seeds of monocotyledonous and dicotyledonous weed and crop plants are placed in sandy loam in wood-fiber pots, covered with soil and cultivated in a greenhouse under good growth conditions. 2 to 3 weeks after sowing, the test plants are treated at the one-leaf stage. The compounds according to the invention, formulated in the form of wettable powders (WP) or as emulsion concentrates (EC), are then sprayed as aqueous suspension or emulsion at a water application rate of 600 to 800 I/ha (converted) with the addition of 0.2% of wetting agent onto the green parts of the plants. After the test plants have been left to stand in the greenhouse under optimal growth conditions for about 3 weeks, the action of the preparations is assessed visually in comparison to untreated controls (herbicidal action in percent (%): 100% action=the plants have died, 0% action=like control plants). Here, for example, the compounds Nos 1-8 and 1-83, at an application rate of 80 g/ha, show an activity of at least 80% against Alopecurus myosuroides, Avena fatua, Cyperus serotinus, Echinochloa crus galli, Lolium multiflorum, Setaria viridis, Abutilon theophrasti, Amaranthus retroflexus, Matricaria inodora, Pharbitis purpureum, Polygonum convolvulus, Stellaria media, Viola tricolor and Veronica persica.
as §2

[5] = test system: Setaria viridis; test: as above; conditions: Table H, 5 g/ha
Description: as §3, §2

[6] = test system: Echinochloa crus galli; test: as above; conditions: Table H, 5 g/ha
Description: as §3, §2

[7] = test system: Triticum aestivum (wheat); test: Pre-emergence action, damage to crop plants; conditions: Table D, 320 g/ha
Source text: as §1, §2

[8] = test system: Polygonum convolvulus; test: Pre-emergence herbicidal action against harmful plants
Source text: as §1, §2

[9] = test system: Triticum aestivum (wheat); test: Post-emergence action, damage to crop plants
Description: as §3, §2

[10] = test system: Oryza sativa (rice); test: Post-emergence action, damage to crop plants; conditions: Table G, 5 g/ha
Description: as §3, §2

[11] = test system: Polygonum convolvulus; test: Post-emergence herbicidal action against harmful plants
Description: as §3, §2

[12] = test system: Pharbitis purpureum; test: as above; conditions: Table G, 5 g/ha
Description: as §3, §2

[13] = test system: Zea mays (corn); test: Post-emergence action, damage to crop plants; conditions: 80 g/ha
Description: as §3, §2

[14] = test system: Lolium multiflorum; test: Post-emergence herbicidal action against harmful plants; conditions: 80 g/ha
Description: as §3, §2

[15] = test system: Avena fatua; test: as above; conditions: Table K, 80 g/ha
Description: as §3, §2

[16] = test system: Oryza sativa (rice); test: Pre-emergence action, damage to crop plants; conditions: 20 g/ha
Source text: as §1, §2

[17] = test system: Echinochloa crus galli; test: Pre-emergence herbicidal action against harmful plants; conditions: 20 g/ha
Source text: as §1, §2

[18] = test system: Amaranthus retroflexus; test: as above; conditions: Table E, 320 g/ha
Source text: as §1, §2

[19] = test system: Zea mays (corn); test: Pre-emergence action, damage to crop plants; conditions: Table C, 320 g/ha
Source text: as §1, §2

[20] = test system: Avena fatua; test: Pre-emergence herbicidal action against harmful plants; conditions: Table C, 320 g/ha
Source text: as §1, §2

[21] = test system: Cyperus serotinus; test: as above; conditions: Table B, 20 g/ha
Source text: as §1, §2

[22] = test system: Alopecurus myosuroides; test: Post-emergence herbicidal action against harmful plants; conditions: Table I, 80 g/ha
Description: as §3, §2

Cc1c(C(=O)Nc2nnnn2C)ccc(S(C)(=O)=O)c1Cl [drawing 9]
Damage to crop plants BRSNW ([1]; Table A, 20 g/ha): 20% | Herbicidal efficacy against ABUTH ([2]; Table A, 20 g/ha): 70% | Herbicidal efficacy against PHBPU ([3]; Table A, 20 g/ha): 0%

Cc1c(C(=S)Nc2nnnn2C)ccc(S(C)(=O)=O)c1Cl [drawing 22]
Herbicidal efficacy against AMARE [4]: 40% | Herbicidal efficacy against SETVI [5]: 40% | Herbicidal efficacy against ECHCG [6]: 70%

Cc1nc(C(F)(F)F)ccc1C(=S)Nc1nnnn1C
Damage to crop plants TRZAS [7]: 0% | Herbicidal efficacy against POLCO ([8]; Table D, 320 g/ha): 80% | Herbicidal efficacy against PHBPU ([3]; Table D, 320 g/ha): 80%

CCOc1c(S(C)(=O)=O)ccc(C(=O)Nc2nnnn2C)c1Cl
Damage to crop plants TRZAS ([9]; Table G, 5 g/ha): 30% | Damage to crop plants ORYSA [10]: 40% | Herbicidal efficacy against POLCO ([11]; Table G, 5 g/ha): 40% | Herbicidal efficacy against PHBPU [12]: 20%

Cc1c(C(=O)Nc2nnnn2C)ccc(C(F)(F)F)c1S(C)(=O)=O [drawing 29]
Damage to crop plants ZEAMX ([13]; Table K): 70% | Herbicidal efficacy against LOLMU ([14]; Table K): 70% | Herbicidal efficacy against AVEFA [15]: 70%

Cc1nc(C(F)(F)F)ccc1C(=O)Nc1nnnn1C
Damage to crop plants TRZAS [7]: 20% | Herbicidal efficacy against POLCO ([8]; Table D, 320 g/ha): 60% | Herbicidal efficacy against PHBPU ([3]; Table D, 320 g/ha): 60%

Cc1c(C(=S)Nc2nnnn2C)ccc(C(F)(F)F)c1S(C)(=O)=O [drawing 18]
Damage to crop plants BRSNW ([1]; Table F, 20 g/ha): 0% | Damage to crop plants ORYSA ([16]; Table F): 20% | Herbicidal efficacy against POLCO ([8]; Table F, 20 g/ha): 60% | Herbicidal efficacy against ECHCG ([17]; Table F): 100%

Cn1nnnc1NC(=O)c1ccc(C(F)(F)F)cc1S(C)(=O)=O
Damage to crop plants TRZAS ([9]; Table J, 80 g/ha): 60% | Herbicidal efficacy against POLCO ([11]; Table J, 80 g/ha): 70%

Cc1c(C(=S)Nc2ncnn2C)ccc(S(C)(=O)=O)c1S(C)(=O)=O
Damage to crop plants BRSNW ([1]; Table E, 320 g/ha): 0% | Herbicidal efficacy against ABUTH ([2]; Table E, 320 g/ha): 80% | Herbicidal efficacy against AMARE [18]: 90%

Cc1c(C(=O)Nc2nnnn2C)ccc(S(C)(=O)=O)c1Cl [drawing 23]
Herbicidal efficacy against AMARE [4]: 20% | Herbicidal efficacy against SETVI [5]: 0% | Herbicidal efficacy against ECHCG [6]: 10%

Cc1c(C(=O)Nc2ncnn2C)ccc(S(C)(=O)=O)c1S(C)(=O)=O
Damage to crop plants BRSNW ([1]; Table E, 320 g/ha): 20% | Herbicidal efficacy against ABUTH ([2]; Table E, 320 g/ha): 0% | Herbicidal efficacy against AMARE [18]: 40%

Cn1nnnc1NC(=S)c1ccc(C(F)(F)F)cc1S(C)(=O)=O
Damage to crop plants TRZAS ([9]; Table J, 80 g/ha): 20% | Herbicidal efficacy against POLCO ([11]; Table J, 80 g/ha): 90%

Cn1nnnc1NC(=S)c1ccc(S(C)(=O)=O)c(COCC(F)(F)F)c1Cl
Damage to crop plants ZEAMX [19]: 0% | Herbicidal efficacy against POLCO ([8]; Table C, 320 g/ha): 90% | Herbicidal efficacy against AVEFA [20]: 90%

CCCn1nnnc1NC(=O)c1ccc(C(F)(F)F)c(S(C)(=O)=O)c1C [drawing 11]
Damage to crop plants ORYSA ([16]; Table B): 50% | Herbicidal efficacy against CYPES [21]: 0% | Herbicidal efficacy against ECHCG ([17]; Table B): 0%

CCCn1nnnc1NC(=O)c1ccc(C(F)(F)F)c(S(C)(=O)=O)c1C [drawing 25]
Damage to crop plants ZEAMX ([13]; Table I): 20% | Herbicidal efficacy against LOLMU ([14]; Table I): 0% | Herbicidal efficacy against ALOMY [22]: 30%

CCOc1c(S(C)(=O)=O)ccc(C(=S)Nc2nnnn2C)c1Cl
Damage to crop plants TRZAS ([9]; Table G, 5 g/ha): 0% | Damage to crop plants ORYSA [10]: 10% | Herbicidal efficacy against POLCO ([11]; Table G, 5 g/ha): 60% | Herbicidal efficacy against PHBPU [12]: 80%

Cc1c(C(=S)Nc2nnnn2C)ccc(S(C)(=O)=O)c1Cl [drawing 8]
Damage to crop plants BRSNW ([1]; Table A, 20 g/ha): 0% | Herbicidal efficacy against ABUTH ([2]; Table A, 20 g/ha): 90% | Herbicidal efficacy against PHBPU ([3]; Table A, 20 g/ha): 20%

Cc1c(C(=O)Nc2nnnn2C)ccc(C(F)(F)F)c1S(C)(=O)=O [drawing 19]
Damage to crop plants BRSNW ([1]; Table F, 20 g/ha): 30% | Damage to crop plants ORYSA ([16]; Table F): 50% | Herbicidal efficacy against POLCO ([8]; Table F, 20 g/ha): 0% | Herbicidal efficacy against ECHCG ([17]; Table F): 20%

Cc1c(C(=S)Nc2nnnn2C)ccc(C(F)(F)F)c1S(C)(=O)=O [drawing 28]
Damage to crop plants ZEAMX ([13]; Table K): 50% | Herbicidal efficacy against LOLMU ([14]; Table K): 90% | Herbicidal efficacy against AVEFA [15]: 90%

CCCn1nnnc1NC(=S)c1ccc(C(F)(F)F)c(S(C)(=O)=O)c1C [drawing 10]
Damage to crop plants ORYSA ([16]; Table B): 0% | Herbicidal efficacy against CYPES [21]: 100% | Herbicidal efficacy against ECHCG ([17]; Table B): 20%

CCCn1nnnc1NC(=S)c1ccc(C(F)(F)F)c(S(C)(=O)=O)c1C [drawing 24]
Damage to crop plants ZEAMX ([13]; Table I): 0% | Herbicidal efficacy against LOLMU ([14]; Table I): 20% | Herbicidal efficacy against ALOMY [22]: 80%

Cn1nnnc1NC(=O)c1ccc(S(C)(=O)=O)c(COCC(F)(F)F)c1Cl
Damage to crop plants ZEAMX [19]: 20% | Herbicidal efficacy against POLCO ([8]; Table C, 320 g/ha): 50% | Herbicidal efficacy against AVEFA [20]: 70%
